In patent publication US20120328711A1, “Antimicrobial system for selective, site-activated binding at target sites” (priority 2011, published 2012) one finds peroxide retention capability data, which are given here for one molecule.

The data set can be described thus: Peroxide retention after desiccation and rehydration (peroxide check strips). The class given is physicochemical. The note with it: 1 g-10 g extract in 20 ml 35% hydrogen peroxide, heated at 80° C., desiccated to 5 ml, rehydrated; colorimetric strips.

Consider `Oc1ccc(C=Cc2cc(O)cc(O)c2)cc1` [resveratrol, Resveratrol], for which the peroxide retention capability entry is recorded as “relatively less ability to form stable perhydrates”.
